Measurements published in patent publication US8666675B2, “Computer method and system for predicting physical properties using a conceptual segment model” (Aspen Technology, Inc., priority 2004, dated 2014).

Key:
[1] = Solvent characteristics (hydrophobic / polar / hydrophilic / complex); format: physicochemical
Text: […] conceptual segments were defined for nonelectrolyte molecules: a hydrophobic segment, a polar segment, a hydrophilic segment and a solvation segment. […] Real molecules in turn are used as reference molecules for the conceptual segments and available phase equilibrium data of these reference molecules are used to identify NRTL binary parameters for the conceptual segments. […] The study was focused on the 59 ICH solvents used in pharmaceutical process design.
Hydrocarbon solvents (aliphatic or aromatic), halogenated hydrocarbons, and ethers are mainly hydrophobic. Ketones, esters and amides are both hydrophobic and polar. Alcohols, glycols, and amines may have both substantial hydrophilicity and hydrophobicity. Acids are complex, with hydrophilicity, polarity, and hydrophobicity.

[2] = compiled from internet websites and Aspen Properties v2004.1; cited from earlier work
[3] = cited from earlier work

Row | Molecule | Solvent characteristics [1] | dielectric constant at 298.15 K [2] | solubility ([3]; in chloroform and DMF, 298.15K) | solubility (data) ([3]; in benzene, cyclohexane, and heptane)
1 | Cc1ccccc1 [TOLUENE, Toluene] | Hydrophobic | 2.36 | – | –
2 | NC=O [FORMAMIDE, Formamide] | Complex | 109.5 | – | –
3 | CN(C)C=O [N,N-DIMETHYLFORMAMIDE, N,N-Dimethylformamide] | Polar | 38.3 | – | –
4 | c1ccc2c(c1)CCCC2 [1,2,3,4-TETRAHYDRONAPHTHALENE, 1,2,3,4-Tetrahydronaphthalene] | Hydrophobic | – | – | –
5 | CC(=O)O [ACETIC-ACID, Acetic acid] | Complex | 6.13 | – | –
6 | CCCCCO [1-PENTANOL, 1-Pentanol] | Hydrophobic/ | 13.9 | – | –
7 | CCCCCCC [N-HEPTANE, n-Heptane] | Hydrophobic | 1.92 | – | –
8 | COCCO [2-METHOXYETHANOL, 2-Methoxyethanol] | Hydrophobic/ | – | – | –
9 | CC(=O)OCC(C)C [ISOBUTYL-ACETATE, Isobutyl-acetate] | Polar | 5.6 | – | –
10 | ClC(Cl)Cl [CHLOROFORM, Chloroform] | Hydrophobic | – | – | –
11 | Cc1cccc(C)c1 [M-XYLENE, m-Xylene] | Hydrophobic | 2.24 | – | –
12 | CC(C)O [ISOPROPYL-ALCOHOL, Isopropyl-alcohol] | Hydrophobic/ | 19.9 | – | –
13 | CCC(C)O (stereo not drawn) [2-BUTANOL, 2-Butanol] | Hydrophobic/ | 15.8 | – | –
14 | CCCCC [N-PENTANE, n-Pentane] | Hydrophobic | 1.84 | – | –
15 | O=C(CCCN1CCC(O)(c2ccc(Cl)cc2)CC1)c1ccc(F)cc1 [Haloperidol] | – | – | unusually high solubilities | –
16 | ClC=C(Cl)Cl [TRICHLOROETHYLENE, Trichloroethylene] | Hydrophobic | 3.42 | – | –
17 | CC(=O)CC(C)C [METHYL-ISOBUTYL-KETONE, Methyl-isobutyl-ketone] | Hydrophobic/Polar | 13.1 | – | –
18 | ClCCl [DICHLOROMETHANE, Dichloromethane] | Polar | 8.9 | – | –
19 | O [WATER, Water] | Hydrophilic | 78.54 | – | –
20 | COc1ccccc1 [ANISOLE, Anisole] | Hydrophobic | 4.3 | – | –
21 | CC(C)c1ccccc1 [CUMENE, Cumene] | Hydrophobic | 2.22 | – | –

Row | Molecule | Solvent characteristics [1] | dielectric constant at 298.15 K [2] | solubility ([3]; in chloroform and DMF, 298.15K) | solubility (data) ([3]; in benzene, cyclohexane, and heptane)
22 | CC(C)CO [ISOBUTANOL, Isobutanol] | Hydrophobic/ | 17.9 | – | –
23 | ClCCCl [1,2-DICHLOROETHANE, 1,2-Dichloroethane] | Hydrophobic | 10.19 | – | –
24 | C[S+](C)[O-] [Dimethyl-sulfoxide] | Polar | 47.2 | – | –
25 | CC(C)=O [ACETONE, Acetone] | Polar | 20.83 | – | –
26 | C=C(Cl)Cl [1,1-DICHLOROETHYLENE, 1,1-Dichloroethylene] | Hydrophobic | 4.6 | – | –
27 | CCCCCCCCO [1-OCTANOL, 1-Octanol] | Hydrophobic/ | 10.3 | – | –
28 | ClC(Cl)(Cl)Cl [CARBON-TETRACHLORIDE, Carbon-tetrachloride] | Hydrophobic | 2.23 | – | –
29 | CCCCO [1-BUTANOL, 1-Butanol] | Hydrophobic/ | 17.7 | – | –
30 | COC(C)(C)C [METHYL-TERT-BUTYL-ETHER, Methyl-tert-butyl-ether] | Hydrophobic | 2.6 | – | –
31 | CCO [ETHANOL, Ethanol] | Hydrophobic/ | 24.11 | – | –
32 | CC#N [ACETONITRILE, Acetonitrile] | Polar | 36.97 | – | –
33 | methyl-butyl-ketone (2-hexanone) | Hydrophobic/Polar | 14.6 | – | –
34 | CC(=O)OC(C)C [ISOPROPYL-ACETATE, Isopropyl-acetate] | Polar | – | – | –
35 | CCC(C)=O [METHYL-ETHYL-KETONE, Methyl-ethyl-ketone] | Hydrophobic/Polar | 18.5 | – | –
36 | CCCCOC(C)=O [N-BUTYL-ACETATE, n-Butyl-acetate] | Hydrophobic/Polar | 5.1 | – | –
37 | CCN(CC)CC [TRIETHYLAMINE, Triethylamine] | Hydrophobic/Polar | 2.44 | – | –
38 | c1ccccc1 [BENZENE, Benzene] | Hydrophobic | 2.27 | – | –
39 | COCCOC [1,2-DIMETHOXYETHANE, 1,2-Dimethoxyethane] | Polar | – | – | –
40 | O=C([O-])c1ccccc1O.[Na+] [sodium salicylate] | – | – | – | very low but measurable solubility
41 | C1CCOC1 [TETRAHYDROFURAN, Tetrahydrofuran] | Polar | 7.52 | – | –
42 | CC(Cl)(Cl)Cl [1,1,1-TRICHLOROETHANE, 1,1,1-Trichloroethane] | Hydrophobic | 7.5 | – | –

Row | Molecule | Solvent characteristics [1] | dielectric constant at 298.15 K [2] | solubility ([3]; in chloroform and DMF, 298.15K) | solubility (data) ([3]; in benzene, cyclohexane, and heptane)
43 | O=S1(=O)CCCC1 [SULFOLANE, Sulfolane] | Polar | 43.3 | – | –
44 | O=CO [FORMIC-ACID, Formic-acid] | Complex | – | – | –
45 | CN1CCCC1=O [N-METHYL-2-PYRROLIDONE, N-Methyl-2-pyrrolidone] | Hydrophobic | 33 | – | –
46 | COC(C)=O [METHYL-ACETATE, Methyl-acetate] | Polar | 6.68 | – | –
47 | OCCO [Ethylene-glycol] | Hydrophilic | – | – | –
48 | CCCCCC [N-HEXANE, n-Hexane] | Hydrophobic | – | – | –
49 | CCOCCO [2-ETHOXYETHANOL, 2-Ethoxyethanol] | Hydrophobic/ | – | – | –
50 | C1CCCCC1 [CYCLOHEXANE, Cyclohexane] | Hydrophobic | 2.02 | – | –
51 | CCOCC [DIETHYL-ETHER, Diethyl-ether] | Hydrophobic | 4.26 | – | –
52 | CC1CCCCC1 [METHYLCYCLOHEXANE, Methylcyclohexane] | Polar | 2.02 | – | –
53 | c1ccncc1 [PYRIDINE, Pyridine] | Polar | – | – | –
54 | ClC=CCl [1,2-DICHLOROETHYLENE, 1,2-Dichloroethylene] | Hydrophobic | 4.6 | – | –
55 | CC(C)CCO [3-METHYL-1-BUTANOL, 3-Methyl-1-butanol] | Hydrophobic/ | 14.7 | – | –
56 | CCCOC(C)=O [N-PROPYL-ACETATE, n-propyl-acetate] | Hydrophobic/Polar | 6 | – | –
57 | CCOC=O [ETHYL-FORMATE, Ethyl-formate] | Polar | 7.16 | – | –
58 | Clc1ccccc1 [CHLOROBENZENE, Chlorobenzene] | Hydrophobic | 5.56 | – | –
59 | CO [METHANOL, Methanol] | Hydrophobic/ | 32.62 | – | –
60 | CCOC(C)=O [ETHYL-ACETATE, Ethyl-acetate] | Hydrophobic/Polar | 6.02 | – | –
61 | CCCO [1-PROPANOL, 1-Propanol] | Hydrophobic/ | 20.1 | – | –
62 | C1COCCO1 [1,4-DIOXANE, 1,4-Dioxane] | Polar | 2.21 | – | –
63 | C[N+](=O)[O-] [NITROMETHANE, Nitromethane] | Polar | 6.26 | – | –
